Test results published in patent US10793509B2, “Compounds useful in the treatment of neoplastic diseases” (UNIVERSITÄT ZU KÖLN, priority 2013, dated 2020).
Where two headings read alike, the source gives them in different places.

Key:
[1] = test system: peripheral blood mononuclear cells (PBMCs) of healthy donors; experiment: AnnexinV/PI assay on PBMCs of healthy donors; assay type: cell-based; conditions: Homo sapiens, PBMC
Method: (§1) PBMCs or CLL cells (5*10^6 cells/ml) were incubated for 24 h with different compounds at concentrations from 0.01 to 100 μM. Cell survival was normalized to DMSO control [vehicle]. See Example 1.
(§2) Primary CLL or peripheral blood mononuclear cells of healthy donors (5*10^6/ml) were incubated for 24 h with different compounds according to the invention and NO-ASA as a control. The compounds were added in different concentrations, in particular in concentrations from 0.01-100 μM. Cell survival was assessed by AnnexinV/PI assay (Kit commercially available, e.g. by Biotium Inc, USA; or Phoenix Flow Systems, US), the results were normalized to DMSO control [vehicle] and dose response curves were calculated using a non-linear regression model.

Primary CLL cells = experiment: AnnexinV/PI assay on primary CLL cells; assay type: cell-based, human; conditions: for EC50: Homo sapiens, CLL cell, read-out: AnnexinV/PI assay EC50 Primary CLL; for selectivity for CLL cells compared to PBMCs: FIG. 3, sensitivity of CLL cells vs PBMCs
Method: as §1, §2

GRANTA-519 = experiment: CellTiter-Glo ATP assay, GRANTA-519 cell line; assay type: cell-based; conditions: Homo sapiens, Granta-519; 24 h, CellTiter-Glo
Method: (§3) Several cell lines (n=5) were treated with different concentrations of p-NO-ASA, B9, B12 and B13 ranging between 0.01 μM and 1000 μM for 24 hours followed by addition of luminogenic CellTiter-Glo®-reagent. […] For each cell line the order of used compound in the bar chart is from left to right as following: p-NO-ASA, B9, B12, B13.
(§4) Treatment success in CLL may depend on cytogenetic and molecular parameters as for instance del13q or TP53 gene disruption. Therefore, the NO-ASA derivatives were examined on (chronic) B cell lymphoma cell lines with different geno- and phenotypes (JVM3, EHEB, U2932, MEC-1, GRANTA-519). The cells were treated with concentrations between 0.01 and 1000 μM for 24 h followed by the addition of luminogenic CellTiter-Glo® reagent.

[2] = test system: ovarian adenocarcinoma cell line COLO704; experiment: Viability assay (ATP content, CellTiter-Glo), COLO704; assay type: cell-based; conditions: COLO 704, 24 h
Method: (§5) In the following experiment the possible therapeutic window for NO-ASA derivatives was investigated. […] The melanoma cell line MelJuso, the colon carcinoma cell line SW480, the small cell lung cancer cell line HCC44, the ovarian adenocarcinoma cell line COLO704 and the acute myeloid leukemia cell line SH2 were treated with concentrations of p-NO-ASA and B9, B12 and B13 in a range between 0.01 μM and 100 μM for 24 h, followed by addition of luminogenic CellTiter-Glo® reagent.
(§6) Table accompanying Example 5. Overview of the EC50 values of cell survival analyzed by ATP content and Annexin V/PI assay. n.t.; not tested

[3] = test system: several cancer cell lines; experiment: Apoptosis (Annexin V/PI) assay, panel of cancer cell lines; assay type: cell-based; conditions: range over the cancer cell lines, 24 h; read-out: concentrations inducing apoptosis in different diseases (apoptosis array)
EHEB = experiment: CellTiter-Glo ATP assay, EHEB cell line; assay type: cell-based; conditions: 24 h, 0.01-1000 μM
Method: as §3, §4

[4] = test system: phosphorylated NFkappaBp65 protein; experiment: Western blot of NFkappaB phosphorylation status in CLL cells; assay type: cell-based, human; conditions: 3 h; for reduction of NFkappaB activity (phosphorylated NFkappaBp65): CLL cells, 0.1, 1, 10 μM; for concentration inducing the reduction of NFkappaB p65 protein: CLL cells
Method: CLL cells were treated with B1, B9, B12 and B13 (0.1 μM, 1 μM, 10 μM) for 3 h. Untreated and DMSO (1%) treated cells served as control. GAPDH=loading control.
The BCR signalling pathway plays an important pathogenic role in CLL and lymphomas leading often to a constitutive active NFkappaB (in this state NFkappaB is phosphorylated). Therefore the influence of the derivatives on the phosphorylation status of NFkappaB was analyzed by Western Blot. CLL cells were treated with 0.1 μM, 1 μM or 10 μM of each derivate, respectively, for 3 h. CLL cells were treated with B1, B9, B12 and B13 (0.1 μM, 1 μM, 10 μM) for 3 h. Untreated and DMSO (1%) treated cells served as control. GAPDH=loading control.

[5] = test system: small cell lung cancer cell line HCC44; experiment: Viability assay (ATP content, CellTiter-Glo), HCC44; assay type: cell-based
Method: as §5, §6

U2932 = experiment: CellTiter-Glo ATP assay, U2932 cell line; assay type: cell-based; conditions: 24 h, 0.01-1000 μM
Method: as §3, §4

[6] = test system: acute myeloid leukemia cell line SH2; experiment: Annexin V/PI assay, SH2; assay type: cell-based; conditions: 24 h
JVM-3 = experiment: CellTiter-Glo ATP assay, JVM-3 cell line; assay type: cell-based, human; conditions: 24 h, 0.01-1000 μM
Method: as §3, §4

[7] = test system: melanoma cell line MelJuso; experiment: Viability assay (ATP content, CellTiter-Glo), MelJuso; assay type: cell-based; conditions: Homo sapiens, MEL-JUSO, 24 h
Method: as §5, §6

[8] = test system: ovarian adenocarcinoma cell line COLO704; experiment: Annexin V/PI assay, COLO704; assay type: cell-based; conditions: COLO 704, 24 h
[9] = test system: SW480, MelJuso, HCC44, SH2 and COLO704 cell lines; assay type: cell-based; conditions: 24 h, 0.01-100 μM
Method: as §5

[10] = test system: colon carcinoma cell line SW480; experiment: cells; assay type: cell-based; conditions: Homo sapiens, SW480, 24 h, read-out: Viability assay EC50, SW480
Method: The cell lines (n=5) were treated with different concentrations of p-NO-ASA, B9, B12 and B13 ranging between 0.01 μM and 100 μM for 24 hours followed by addition of luminogenic CellTiter-Glo®-reagent (see Example 5).
as §5, §6

MEC-1 = experiment: CellTiter-Glo ATP assay, MEC-1 cell line; assay type: cell-based; conditions: Homo sapiens, MEC1; 24 h, CellTiter-Glo
Method: as §3, §4

TP53-mutated CLL cells = experiment: FACS analysis of treated CLL cells with TP53 mutation; assay type: cell-based, human; conditions: 24 h, 0.01-100 μM, FIG. 6
Method: (§7) Isolated, primary CLL cells were treated for 24 h with the EC50 of the different compounds and the ATP-content was measured by flow cytometry. For each used compound the order of mean EC50 concentrations in the bar chart is from left to right as following: EC50 CLL cells TP53 unmut (unmutated=without mutation), EC50 CLL cells TP53 mut (mutated=with mutation).
(§8) Further, the derivatives B9, B12 and B13 were tested in comparison to para-NO-ASA on CLL cells which harbour a TP53 mutation. The patient subgroup with a TP53 disruption is characterized by a considerable dismal prognosis. CLL cells of patients with and without the TP53 mutation were treated with five different concentrations (0.01, 0.1, 1, 10, 100 μM) of para-NO-ASA, B9, B12 and B13 for 24 h.

[11] = test system: acute myeloid leukemia cell line SH2; experiment: Viability assay (ATP content, CellTiter-Glo), SH2; assay type: cell-based; conditions: 24 h
Method: as §5, §6

[12] = test system: small cell lung cancer cell line HCC44; experiment: Annexin V/PI assay, HCC44; assay type: cell-based; conditions: Homo sapiens, HCC44, 24 h
[13] = test system: melanoma cell line MelJuso; experiment: Annexin V/PI assay, MelJuso; assay type: cell-based; conditions: Homo sapiens, MEL-JUSO, 24 h
[14] = test system: CLL cells without a TP53 mutation; experiment: FACS analysis of treated CLL cells without TP53 mutation; assay type: cell-based, human; conditions: 24 h, 0.01-100 μM, FIG. 6
Method: as §7, §8

[15] = 24 h incubation, value extrapolated beyond tested 0.01-100 μM, read-out: AnnexinV/PI assay EC50 PBMCs (* = extrapolated)
[16] = 24 h incubation, 0.01-100 μM, 5*10^6 cells/ml, normalized to DMSO control
[17] = 24 h incubation, 0.01-100 μM, 5*10^6 cells/ml, normalized to DMSO control, read-out: AnnexinV/PI assay EC50 PBMCs

O=COCc1ccc(OC(=O)c2ccccc2)cc1 [B10, 4-((formyloxy)methyl)phenyl benzoate]
EC50 [1, 15]: 859 µM
EC50 (Primary CLL cells; [16]): 79.4 µM

O=C(Oc1ccc(CO[N+](=O)[O-])cc1)C1CCCCC1 [B14, 4-((nitrooxy)methyl)phenyl cyclohexane carboxylate]
EC50 [1, 17]: 20.2 µM
EC50 (Primary CLL cells; [16]): 3.31 µM

O=C(Oc1ccc(CO[N+](=O)[O-])cc1)c1cccc2ccccc12 [B13, 4-((nitrooxy)methyl)phenyl 1-naphthoate]
EC50 (GRANTA-519): 19.7 µM
EC50 [2]: 7.86 µM
EC50 [3]: 7 to 57 µM
ATP content in EHEB (EHEB): reduced ATP content
reduction of NFkappaB activity (phosphorylated NFkappaBp65) [4]: concentration dependent reduction
concentration inducing the reduction of NFkappaB p65 protein [4]: 10 µM
EC50 [1, 17]: 52.7 µM
EC50 ([5]; Homo sapiens, HCC44, 24 h): 1.68 µM
ATP content in U2932 (U2932): reduced ATP content
EC50 [6]: 6.95 µM
ATP content in JVM-3 (JVM-3): reduced ATP content
EC50 [7]: 4.79 µM
EC50 [8]: 53.7 µM
ATP content in SW480, MelJuso, HCC44, SH2 and COLO704 cell lines [9]: reduced ATP content
EC50 [10]: 190 µM
EC50 (MEC-1): 24.1 µM
effect on TP53-mutated CLL cells in comparison to para-NO-ASA (B1) (TP53-mutated CLL cells): more effective
EC50 [11]: 0.64 µM
selectivity for CLL cells compared to PBMCs (Primary CLL cells; 24 h): selective for CLL cells
EC50 (Primary CLL cells; [16]): 1.04 µM
EC50 [12]: 37.9 µM
EC50 [13]: 57.5 µM

CC(=O)Oc1ccc(C)cc1C(=O)Oc1ccc(CO[N+](=O)[O-])cc1 [B2, 4-((nitrooxy)methyl)phenyl 2-actetoxy-5-methylbenzoate]
EC50 [1, 17]: 48.5 µM
EC50 (Primary CLL cells; [16]): 4.75 µM

COc1cc(CO[N+](=O)[O-])ccc1OC(=O)c1ccccc1 [B11, 2-methoxy-4-((nitrooxy)methyl)phenyl benzoate]
EC50 ([1]; 24 h, read-out: AnnexinV/PI assay EC50 PBMCs): 24.4 µM
EC50 (Primary CLL cells; 24 h): 14.7 µM

COc1ccccc1C(=O)Oc1ccc(CO[N+](=O)[O-])cc1 [B18, 4-((nitrooxy)methyl)phenyl 2-methoxybenzoate]
EC50 (Primary CLL cells; [16]): 26 µM

CC(C)(C)[Si](C)(C)OCc1ccc(OC(=O)c2ccccc2)cc1 [B7, 4-(((tert-butyldimethylsilyl)oxy)methyl)phenyl benzoate]
EC50 [1, 15]: 203 µM
EC50 (Primary CLL cells; [16]): 52.8 µM

CC(=O)Oc1cc(C)ccc1C(=O)Oc1ccc(CO[N+](=O)[O-])cc1 [B3, 4-((nitrooxy)methyl)phenyl 2-actetoxy-4-methylbenzoate]
EC50 [1, 17]: 55.1 µM
EC50 (Primary CLL cells; [16]): 4 µM

O=C(Oc1ccc(CCl)cc1)c1ccccc1 [B12, 4-(chloromethyl)phenyl benzoate]
EC50 (GRANTA-519): 0.68 µM
EC50 [2]: 2.77 µM
EC50 [3]: 1 to 5 µM
effect on CLL cells without a TP53 mutation [14]: great effect
ATP content in EHEB (EHEB): reduced ATP content
reduction of NFkappaB activity (phosphorylated NFkappaBp65) [4]: concentration dependent reduction
concentration inducing the reduction of NFkappaB p65 protein [4]: 10 µM
EC50 [1, 17]: 35 µM
EC50 ([5]; 24 h): 1.03 µM
EC50 ([5]; Homo sapiens, HCC44, 24 h): 1.05 µM
ATP content in U2932 (U2932): reduced ATP content
EC50 [6]: 1.68 µM
ATP content in JVM-3 (JVM-3): reduced ATP content
EC50 [7]: 0.54 µM
EC50 [8]: 1.8 µM
ATP content in SW480, MelJuso, HCC44, SH2 and COLO704 cell lines [9]: reduced ATP content
EC50 [10]: 130 µM
EC50 (MEC-1): 3.24 µM
effect on TP53-mutated CLL cells in comparison to para-NO-ASA (B1) (TP53-mutated CLL cells): more effective
EC50 [11]: 0.01 µM
selectivity for CLL cells compared to PBMCs (Primary CLL cells; 24 h): selective for CLL cells
EC50 (Primary CLL cells; [16]): 1.33 µM
EC50 [12]: 7.35 µM
EC50 [13]: 4.79 µM

O=C(Oc1ccc(CO[N+](=O)[O-])cc1)c1cc(C(F)(F)F)ccc1Cl [B6, 4-((nitrooxy)methyl)phenyl 2-chloro-5-(trifluoromethyl)benzoate]
EC50 [1, 17]: 73.9 µM
EC50 (Primary CLL cells; [16]): 4.42 µM

C#Cc1cc(CO[N+](=O)[O-])ccc1OC(=O)c1ccccc1 [B20, 2-ethynyl-4-((nitrooxy)methyl)phenyl benzoate]
EC50 [1, 15]: 308 µM
EC50 (Primary CLL cells; [16]): 21.8 µM

Nc1cccc2c(S(=O)(=O)Oc3ccc(CO[N+](=O)[O-])cc3)cccc12 [B16, 4-((nitrooxy)methyl)phenyl 5-aminonaphthalene-1-sulfonate]
EC50 [1, 15]: 370 µM
EC50 (Primary CLL cells; [16]): 82.4 µM

O=C(Oc1ccc(CO)cc1)c1cc(C(F)(F)F)ccc1Cl [B5, 4-(hydroxymethyl)phenyl 2-chloro-5-(trifluoromethyl)benzoate]
EC50 [1, 15]: 108 µM
EC50 (Primary CLL cells; [16]): 37.2 µM

O=C(Oc1ccc(CO)cc1)c1ccccc1 [B8, 4-(hydroxymethyl)phenyl benzoate]
EC50 (Primary CLL cells; [16]): 57.3 µM
